# Data reported in article PMC4529334, “Activity of second-generation ALK inhibitors against crizotinib-resistant mutants in an NPM-ALK model compared to EML4-ALK” (Cancer Medicine, 2015).
# Experiments:
# NPM-ALK (NA WT) [1] = tested on: T1, NPM-ALK (NA WT); test: Ba/F3 proliferation, [3H]-thymidine incorporation; format: cell-based, Homo sapiens; details: […] °C, no IL-3, ALK-dependent cell growth, stated gain
# T1 construct: NPM-ALK fusion from t(2;5)(p23;q35), pcDNA3.0, stably expressed in murine Ba/F3 cells (IL-3-independent); single fused polypeptide NPM1 N-terminal part + ALK C-terminal part with kinase domain; with Nucleophosmin
# NPM-ALK (NA WT) [2] = tested on: T1, NPM-ALK (NA WT); test: Ba/F3 proliferation, [3H]-thymidine incorporation; format: cell-based, Homo sapiens; details: […] °C, no IL-3, ALK-dependent cell growth, parental Ba/F3 as control
# EML4-ALK (EA WT) [3] = tested on: T2, EML4-ALK (EA WT); test: Ba/F3 proliferation, [3H]-thymidine incorporation; format: cell-based, Homo sapiens; details: […] °C, no IL-3, ALK-dependent cell growth, parental Ba/F3 as control
# T2 construct: EML4-ALK fusion (EML4 exon 6 to ALK exon 20) in pCDH-CMV-MCS-EF1-Puro, stably expressed in murine Ba/F3 cells (IL-3-independent); single fused polypeptide; with Echinoderm microtubule-associated protein-like 4
# EML4-ALK (EA WT) [4] = details: […] h, […] °C, no IL-3; ALK-dependent cell growth; stated gain
# NPM-ALK (NA WT) [5] = details: […] h, […] °C, no IL-3; ALK-dependent cell growth; stated gain
# Source text: Ba/F3 proliferation, [3H]-thymidine incorporation on NPM-ALK (NA WT)
# NPM-ALK (NA WT) [6] = tested on: T1, NPM-ALK (NA WT); test: Ba/F3 proliferation, [3H]-thymidine incorporation; format: cell-based, Homo sapiens; details: […] °C, no IL-3, ALK-dependent cell growth, parental Ba/F3 as control; remark: listed apart in the source
# EML4-ALK (EA WT) [7] = tested on: T2, EML4-ALK (EA WT); test: Ba/F3 proliferation, [3H]-thymidine incorporation; format: cell-based, Homo sapiens; details: […] °C, no IL-3, ALK-dependent cell growth, parental Ba/F3 as control; remark: listed apart in the source
# Source text: Ba/F3 proliferation, [3H]-thymidine incorporation on EML4-ALK (EA WT)
smiles,measurement,setting,value
COc1cc(N2CCC(N3CCN(C)CC3)CC2)ccc1Nc1ncnc(Nc2ccccc2S(=O)(=O)C(C)C)n1 [ASP3026],IC50 (μmol/L) / ASP3026,NPM-ALK (NA WT) [1],2.763 µmol/L
same,IC50 (μmol/L) / ASP3026,NPM-ALK (NA WT) [2],0.084 µmol/L
same,IC50 (μmol/L) / ASP3026,EML4-ALK (EA WT) [3],0.056 µmol/L
COc1cc(N2CCC(N3CCN(C)CC3)CC2)ccc1Nc1ncc(Cl)c(Nc2ccccc2P(C)(C)=O)n1 [AP26113],IC50 (μmol/L) / AP26113,EML4-ALK (EA WT) [4],0.021 µmol/L
